Test results from USRE30241E, “Esters of 3-(hydroxy or hydroxymethyl)-4-hydroxyphenyl aminomethyl ketones” (Sterling Drug Inc., priority 1970, dated 1980).
Where two headings read alike, the source gives them in different places.

Tests used:
[1] = test system: guinea pig bronchioles constricted by carbachol; test: Bronchodilator Test Method II, in vitro perfused guinea pig lung
Description: In this method bronchodilator activity in vitro was determined by testing the effect of graded doses of the test compounds on guinea pig bronchioles constricted by carbachol, using the technique reported by Sollman and von Oettingen, Proc. Soc, Exp. Biol. Med., 25,692 (1928) as modified by Tainter, Pedden, and James, J. Pharm. Exp. Ther., 51, 371 (1934) and by Luduena, von Euler, Tullar, and Lands, Arch. intern. Pharmacol., III, 392 (1957).

[2] = test system: carbachol- or histamine-induced bronchoconstriction; test: Bronchodilator Test Method I, anesthetized dog, intravenous activity; assay type: in vivo; settings: Canis lupus familiaris, read-out: Bronchodilatation; for inhibition in vivo at 0.0012 mg/kg: 1.2 mcg/kg i.v.; for inhibition in vivo at 0.006 mg/kg: 6.0 mcg/kg i.v.; for inhibition in vivo at 0.008 mg/kg: 8 mcg/kg i.v.; for inhibition in vivo at 0.032 mg/kg: 32 mcg/kg i.v.; for inhibition in vivo at 0.128 mg/kg: 128 mcg/kg i.v.
Description: Bronchodilator activity was tested in anesthetized dogs (Test Method I) and in vitro on the perfused guinea pig lung (Test Method II), using the following pharmacological test procedures
(§1) Male and female dogs weighing 9-18 kg. each were anesthetized with pentobarbital sodium (30 mg./kg. i.v.). Each animal, with thorax opened at the midsternum, was maintained under artificial ventilation using a constant volume pump (250 ml./stroke; 10 to 12 strokes per minute) attached to the tracheal cannula. The flow of air was controlled by a glass or plastic valve which closed and opened respectively on inflow and outflow of the air to and from the tracheal cannula. Bronchoconstriction and/or bronchodilatation were measured from changes in the basal airway pressure reflected by a transducer attached to the sidearm of the cannula relayed to a polygraph.
(§2) Control bronchoconstrictions were induced by intravenous injections of carbachol (choline chloride carbamate) in doses ranging from 4 to 6 micrograms per kilogram or histamine diphosphate in doses ranging from 35 to 45 micrograms per kilogram.
Solutions of the test compounds were prepared in distilled water or in saline (for infusion). […] These solutions were then tested for bronchodilator activity in three ways, viz. (1) by mixing a graded dose of test compound with the constant does of carbachol or histamine in a syringe and injecting the mixture into the femoral vein of the dog, (2) by producing the bronchoconstriction first and injecting the test compound at the time of maximum constriction, and (3) by injecting the test compound first followed by carbachol or histamine in 1-10 minutes. Injections were repeated at 20-30 minutes. Bronchodilator values were obtained by measuring the areas under the response polygraph tracings (the first 5 munite period) of carbachol or histamine controls and of the experimentals using a planimeter. Decrease in the area thus measured was expressed as a percent bronchodilatation in reference to the area of control carbachol or histamine constriction. The mean bronchodilatations (the reductions in constrictions) were plotted against the doses administered and the mean effective dose (ED50) was estimated in micrograms/kilogram from the does-response curves. Blood pressure recording was taken from the femoral artery using an arterial transducer relayed to a polygraph.

[3] = test system: carbachol- or histamine-induced bronchoconstriction; test: Bronchodilator Test Method I, anesthetized dog, intraduodenal activity; assay type: in vivo; settings: Canis lupus familiaris, read-out: Bronchodilation; for inhibition in vivo at 0.038 mg/kg: 38 mcg/kg (salt) intraduodenal; for inhibition in vivo at 0.45 mg/kg: 450 mcg/kg (salt) intraduodenal; for inhibition in vivo at 0.032 mg/kg: 32 mcg/kg (salt) intraduodenal; for inhibition in vivo at 0.128 mg/kg: 128 mcg/kg (salt) intraduodenal
Description: as §1
as §2, with “kilogram. In the majority of test animals, the above doses of constrictor agents produced a 100-200 percent increase in the normal airway pressure or amplitude.” for “kilogram.”
Injections were repeated at 20-30 minutes.
In intraduodenal studies, in the dog prepared for bronchodilation measurements, the duodenal segment of the small intestine was made easily accessible through a small mid-line incision in the abdomen. The test solution was injected into the duodenum using a fine needle. Commencing 5 minutes after medication, the degree and duration of bronchodilation were tested by injecting a control dose of carbachol or histamine at intervals of 30-60 minutes until the recovery or near-recovery was apparent. In some dogs showing an early recovery, a reference drug was also tested in the same dog 1.5-2 hours after the first medicine.

Cc1ccc(C(=O)Oc2ccc(C(O)CNC(C)C)cc2OC(=O)c2ccc(C)cc2)cc1 (stereo not drawn) [Example 89, 3,4-bis(p-toluyloxy)-alpha-(isopropylaminomethyl)benzyl alcohol]
ED50 ([1]; carbachol (Doryl) 1:5 million): 6.4 µg (base)
Duration, Mean ([1]; dose 15 mcg (base)): 125 ± 31 min

CC(C)(C)NCC(O)c1ccc(OC(=O)C(C)(C)C)c(O)c1 (stereo not drawn) [Example 59, 3-hydroxy-4-(pivalyloxy)-alpha-(tert-butylaminomethyl)benzyl alcohol methanesulfonate]
ED50 ([1]; carbachol (Doryl) 1:5 million): 1.2 µg (base)
Duration, Mean ([1]; dose 3.2 mcg (base)): 25 ± 5.6 min

COc1ccc(C(=O)Oc2ccc(C(O)CNC(C)(C)C)cc2OC(=O)c2ccccc2)cc1 (stereo not drawn) [Example 143, 3-benzoyloxy-4-(p-anisoyloxy)-alpha-(tert-butylaminomethyl)benzyl alcohol]
ED50 ([1]; Doryl conc. 1:10 million): 1.53 µg (base)
Duration, Mean ([1]; dose 2 mcg (base), Doryl conc. 1:10 million): 29.2 ± 10.2 min

CC(=O)Oc1ccc(C(O)CNC(C)(C)C)cc1OC(=O)c1ccc(C)cc1 (stereo not drawn) [Example 146, 3-(p-toluyloxy)-4-acetoxy-alpha-(tert-butylaminomethyl)benzyl alcohol methanesulfonate]
inhibition in vivo at 0.0012 mg/kg ([2]; 5 min, 5 min): 31%
inhibition in vivo at 0.006 mg/kg ([2]; 5 min, 5 min): 66%
inhibition in vivo at 0.0012 mg/kg ([2]; 0.5 h, 30 min): 38%
inhibition in vivo at 0.006 mg/kg ([2]; 0.5 h, 30 min): 57%
inhibition in vivo at 0.0012 mg/kg ([2]; 1 h, 60 min): 44%
inhibition in vivo at 0.006 mg/kg ([2]; 1 h, 60 min): 63%
inhibition in vivo at 0.0012 mg/kg ([2]; 3 h, 180 min): 20%
inhibition in vivo at 0.0012 mg/kg ([2]; 4 h, 240 min): 20%
inhibition in vivo at 0.038 mg/kg ([3]; 5 min, 5 min): 60%
inhibition in vivo at 0.038 mg/kg ([3]; 0.5 h, 30 min): 39%
inhibition in vivo at 0.038 mg/kg ([3]; 1 h, 60 min): 39%
inhibition in vivo at 0.038 mg/kg ([3]; 2 h, 120 min): 26%
inhibition in vivo at 0.038 mg/kg ([3]; 3 h, 180 min): 33%
inhibition in vivo at 0.038 mg/kg ([3]; 4 h, 240 min): 24%
inhibition in vivo at 0.038 mg/kg ([3]; 5 h, 300 min): 13%

3,4-bis(p-toluyloxy)-alpha-[1-(tert-butylaminomethyl)propyl]benzyl alcohol hydrochloride [Example 144]
Duration, Mean ([1]; dose 500 mcg (base)): 83 ± 26.8 min

Cc1ccc(C(=O)Oc2ccc(C(O)CN)cc2OC(=O)c2ccc(C)cc2)cc1 (stereo not drawn) [Example 127, 3,4-bis(p-toluyloxy)-alpha-(aminomethyl)benzyl alcohol methanesulfonate]
inhibition in vivo at 0.45 mg/kg ([3]; 5 min, 5 min): 16%
inhibition in vivo at 0.45 mg/kg ([3]; 10 min, 10 min): 16%
inhibition in vivo at 0.45 mg/kg ([3]; 1 h, 60 min): 0%
inhibition in vivo at 0.45 mg/kg ([3]; […], after 90 min): 0%

CC(=O)OCc1cc(C(O)CNC(C)(C)C)ccc1OC(=O)C12CC3CC(CC(C3)C1)C2 (stereo not drawn) [Example 152, 3-(acetoxymethyl)-4-(1-adamantanecarbonyloxy)-alpha-(tert-butylaminomethyl)benzyl alcohol methanesulfonate]
inhibition in vivo at 0.008 mg/kg ([2]; 5 min, 5 min): 44%
inhibition in vivo at 0.032 mg/kg ([2]; 5 min, 5 min): 77%
inhibition in vivo at 0.128 mg/kg ([2]; 5 min, 5 min): 97%
inhibition in vivo at 0.008 mg/kg ([2]; 0.5 h, 30 min): 39%
inhibition in vivo at 0.032 mg/kg ([2]; 0.5 h, 30 min): 78%
inhibition in vivo at 0.128 mg/kg ([2]; 0.5 h, 30 min): 92%
inhibition in vivo at 0.008 mg/kg ([2]; 1 h, 60 min): 50%
inhibition in vivo at 0.032 mg/kg ([2]; 1 h, 60 min): 75%
inhibition in vivo at 0.128 mg/kg ([2]; 1 h, 60 min): 93%
inhibition in vivo at 0.008 mg/kg ([2]; 2 h, 120 min): 33%
inhibition in vivo at 0.032 mg/kg ([2]; 2 h, 120 min): 70%
inhibition in vivo at 0.128 mg/kg ([2]; 2 h, 120 min): 87%
inhibition in vivo at 0.008 mg/kg ([2]; 3 h, 180 min): 39%
inhibition in vivo at 0.032 mg/kg ([2]; 3 h, 180 min): 63%
inhibition in vivo at 0.128 mg/kg ([2]; 3 h, 180 min): 89%
inhibition in vivo at 0.008 mg/kg ([2]; 4 h, 240 min): 39%
inhibition in vivo at 0.032 mg/kg ([2]; 4 h, 240 min): 52%
inhibition in vivo at 0.128 mg/kg ([2]; 4 h, 240 min): 88%
inhibition in vivo at 0.008 mg/kg ([2]; 4.5 h, 270 min): 0%
inhibition in vivo at 0.032 mg/kg ([2]; 4.5 h, 270 min): 45%
inhibition in vivo at 0.128 mg/kg ([2]; 4.5 h, 270 min): 82%
inhibition in vivo at 0.032 mg/kg ([3]; 5 min, 5 min): 6%
inhibition in vivo at 0.128 mg/kg ([3]; 5 min, 5 min): 6%
inhibition in vivo at 0.032 mg/kg ([3]; 0.5 h, 30 min): 6%
inhibition in vivo at 0.128 mg/kg ([3]; 0.5 h, 30 min): 43%
inhibition in vivo at 0.032 mg/kg ([3]; 1 h, 60 min): 17%
inhibition in vivo at 0.128 mg/kg ([3]; 1 h, 60 min): 59%
inhibition in vivo at 0.032 mg/kg ([3]; 2 h, 120 min): 48%
inhibition in vivo at 0.128 mg/kg ([3]; 2 h, 120 min): 51%
inhibition in vivo at 0.032 mg/kg ([3]; 3 h, 180 min): 45%
inhibition in vivo at 0.128 mg/kg ([3]; 3 h, 180 min): 65%
inhibition in vivo at 0.032 mg/kg ([3]; 4 h, 240 min): 45%
inhibition in vivo at 0.128 mg/kg ([3]; 4 h, 240 min): 59%
inhibition in vivo at 0.032 mg/kg ([3]; 5 h, 300 min): 21%
inhibition in vivo at 0.128 mg/kg ([3]; 5 h, 300 min): 54%

CC(C)C(=O)Oc1ccc(C(O)CNC(C)(C)C)cc1OC(=O)C(C)C.Cl (stereo not drawn) [Example 2, 3,4-bis(isobutyryloxy)-alpha-(tert-butylaminomethyl)benzyl alcohol hydrochloride]
ED50 ([1]; carbachol (Doryl) 1:5 million): 0.28 µg (base)
Duration, Mean ([1]; dose 0.5 mcg (base)): 9 ± 1.1 min
